From PubChem BioAssay AID602435 (Southern Research Specialized Biocontainment Screening …, 2012)
Values joined by “and” are separate entries in the source; they are usually repeats but may differ in a detail not shown here. Equal entries are not always repeated. Inconclusive results are not listed. Active and inactive are the calls of the source. The rule behind the calls is not given here.

Legend:
[1] = test system: Mycobacterium tuberculosis H37Rv growth, 7H9 medium; experiment: M. tuberculosis growth inhibition, dose response, 7H9 medium, purified and synthesized samples, set 9 (AID 602435); settings: for IC50: measured here: IC50 growth inhibition replicates
[2] = as above; settings: Mycobacterium tuberculosis H37Rv growth, 7H9 medium

| Compound | IC50 [1] | IC90 [1] [µM] | growth inhibition ([2]; at 100 µM (top of the series)) | growth inhibition ([2]; at 50 µM (top of the series)) |
| --- | --- | --- | --- | --- |
| CC1CCCN(C(=O)c2ccc(CNc3c(N4CCCCC4)c(=O)c3=O)cc2)C1 (stereo not given) | 3.7 µM | – | – | – |
| O=C(NCc1ccc(C(=O)N2CCC(c3ccccc3)CC2)cc1)Nc1ccc(Cl)cc1 | 74.4 µM | 94 | – | – |
| CC(C)CCNC(=O)CSc1nc2ccccc2c(=O)[nH]1 | 0.696 µM | 0.78 | – | – |
| O=C(NCCc1ccc(Cl)cc1)c1ccc(CNc2c(N3CCOCC3)c(=O)c2=O)cc1 | 10.5 µM and 12.5 µM | 19.1 | – | – |
| CCOC(=O)CSc1ncnc2c1cnn2-c1ccc(C)cc1C | 2.42 µM | 3.65 | – | – |
| O=C(NCc1ccc(C(=O)N2CCC(c3ccccc3)CC2)cc1)NC1CCCCC1 | 69.1 µM | 88.7 | – | – |
| CC(C)OC(=O)CSc1ncnc2c1cnn2-c1ccccc1 | 28.7 µM | – | – | – |
| CCOc1ccc(NC(=O)c2ccc(CNc3c(N4CCCC4)c(=O)c3=O)cc2)cc1 | – | – | -10% (inactive) | – |
| CC1CC(C)CN(C(=O)C2CCC(CNc3c(N4CCCCC4)c(=O)c3=O)CC2)C1 (stereo not given) | 13.7 µM and 29 µM | – | – | – |
| CCOC(=O)CSc1ncnc2c1cnn2-c1ccccc1 | 15.3 µM | 39.5 | – | – |
| COC(=O)CSc1ncnc2c1cnn2-c1ccc(C)cc1C | 2.57 µM | 3.65 | – | – |
| CC1CCCN(c2c(NCc3ccc(C(=O)N4CC=C(c5ccccc5)CC4)cc3)c(=O)c2=O)C1 (stereo not given) | 7.54 µM | 11.8 | – | – |
| CC(C)CCNC(=O)CSc1nc2c(c(=O)[nH]1)CCCCC2 | 99.6 µM | – | – | – |
| COC(=O)C(Cc1ccccc1)NC(=O)CSc1nc2ccccc2c(=O)[nH]1 (stereo not given) | – | – | 4.82% (inactive) | – |
| O=C(CSc1nc2c(c(=O)[nH]1)CCC2)NC1CCCCC1 | 2.97 µM | 3.92 | – | – |
| O=C(c1ccc(CNc2c(N3CCOCC3)c(=O)c2=O)cc1)N1CC=C(c2ccccc2)CC1 | 0.957 µM | 6.81 | – | – |
| CC(=O)c1ccc(NC(=O)c2ccc(CNc3c(N4CCOCC4)c(=O)c3=O)cc2)cc1 | 50 µM | – | – | – |
| O=C(c1ccc(CNc2c(N3CCCC3)c(=O)c2=O)cc1)N1CCN(c2ccccc2)CC1 | 62.3 µM | – | – | – |
| O=C(CSc1nc2c(c(=O)[nH]1)CN(Cc1ccccc1)CC2)NC1CCCCC1 | – | – | -0.3% (inactive) | – |
| O=C(c1ccc(CNc2c(N3CCOCC3)c(=O)c2=O)cc1)N1CCC(c2ccccc2)CC1 | 3.43 µM | 16 | – | – |
| Cc1cccc(N2CCN(C(=O)c3ccc(CNc4c(N5CCC(C)CC5)c(=O)c4=O)cc3)CC2)c1C | 42.1 µM | – | – | – |

| Compound | IC50 [1] | IC90 [1] [µM] | growth inhibition ([2]; at 100 µM (top of the series)) | growth inhibition ([2]; at 50 µM (top of the series)) |
| --- | --- | --- | --- | --- |
| O=C(CSc1nc2c(c(=O)[nH]1)CCCC2)NC1CCCCC1 | 1.97 µM | 3.12 | – | – |
| COc1ccc(N2CCN(C(=O)c3ccc(CNc4c(N5CCOCC5)c(=O)c4=O)cc3)CC2)cc1 | 6.35 µM and 6.09 µM | – | – | – |
| O=C(C1CCC(CNc2c(N3CCCCC3)c(=O)c2=O)CC1)N1CCCCC1 (stereo not given) | 25.2 µM | – | – | – |
| O=C(c1ccc(CNc2c(N3CCCC3)c(=O)c2=O)cc1)N1CCC(c2ccccc2)CC1 | 79.7 µM | – | – | – |
| CC1CC(C)CN(C(=O)c2ccc(CNc3c(N4CCCC4)c(=O)c3=O)cc2)C1 (stereo not given) | 8.84 µM | – | – | – |
| O=C(c1ccc(CNc2c(N3CCOCC3)c(=O)c2=O)cc1)N1CCN(c2ccccc2)CC1 | 3.45 µM | – | – | – |
| CC1CCN(C(=O)c2ccc(CNc3c(N4CCCC4)c(=O)c3=O)cc2)CC1 | 8.48 µM | – | – | – |
| O=C(CSc1nc2ccccc2c(=O)[nH]1)NC1CCOCC1 | 23.1 µM | 26 | – | – |
| Cc1cccc(N2CCN(C(=O)c3ccc(CNc4c(N5CCC(C)CC5)c(=O)c4=O)cc3)CC2C)c1 (stereo not given) | 26.9 µM | 41.3 | – | – |
| O=C(CSc1nc2ccccc2c(=O)[nH]1)NC1CCCCC1 | 0.195 µM | < 0.29 | – | – |
| COCCNC(=O)CSc1nc2ccccc2c(=O)[nH]1 | – | – | -5.73% (inactive) | – |
| CC(C)CCNC(=O)CSc1nc2c(c(=O)[nH]1)CCCC2 | 4.43 µM | 6.12 | – | – |
| CCC(C)NC(=O)CSc1nc2ccccc2c(=O)[nH]1 (stereo not given) | 15.7 µM | 16.9 | – | – |
| CCOC(=O)N1CCC(Nc2c(Nc3cccc(CC)c3)c(=O)c2=O)CC1 | – | – | – | 3.52% (inactive) |
| O=C(c1ccc(CNc2c(N3CCCC3)c(=O)c2=O)cc1)N1CCc2ccccc2C1 | 5.06 µM | – | – | – |
| O=C(c1ccc(CNc2c(N3CCCC3)c(=O)c2=O)cc1)N1CC=C(c2ccccc2)CC1 | 3.22 µM and 2.96 µM | – | – | – |
| CC1CCCN(C(=O)C2CCC(CNc3c(N4CCCCC4)c(=O)c3=O)CC2)C1 (stereo not given) | 26.2 µM | – | – | – |
| COc1ccc(N2CCN(C(=O)c3ccc(CNc4c(N5CCCC(C)C5)c(=O)c4=O)cc3)CC2)cc1 (stereo not given) | 28.1 µM | 46.9 | – | – |
| COc1ccc(N2CCN(C(=O)c3ccc(CNC(=O)NCc4ccc(Cl)cc4)cc3)CC2)cc1 | – | – | 3.4% (inactive) | – |
| O=C(NCc1ccc(C(=O)N2CCN(c3ccccc3)CC2)cc1)NC1CCCCC1 | – | – | 2.95% (inactive) | – |
| O=C(NCCc1ccc(Cl)cc1)C1CCC(CNc2c(N3CCCCC3)c(=O)c2=O)CC1 (stereo not given) | 37.1 µM | – | – | – |
